The record followed here is PubChem BioAssay AID328 (DTP/NCI, 2004).

SMILES strings stand for the structures. “And” between values parts separate entries of the source, which are not always exact repeats. Identical values can stand only once. Inconclusive results and toxic doses are left out.

The test system of this assay is BDF1 mice, P388 leukemia ip, median survival T/C. Put plainly: NCI In Vivo Anticancer Drug Screen. Data for tumor model P388 Leukemia (intraperitoneal) in B6D2F1 (BDF1) mice. The note with it: endpoint: median survival time, higher = longer survival. The essentials:
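Steps: implant the tumour, treat one group with compound and another with vehicle, record survival, then divide treated by control.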

Setting [1] is: dose: 12.5 mg/kg/injection, schedule: Q01DX009 (ip), vehicle: saline with Tween-80.
[2] abbreviates: dose: 50.0 mg/kg/injection, schedule: Q01DX009 (ip), vehicle: saline with Tween-80.
[3] abbreviates: dose: 100.0 mg/kg/injection, schedule: Q01DX009 (ip), vehicle: saline.
Where [4] appears, read: dose: 100.0 mg/kg/injection, schedule: Q04DX003 (ip), vehicle: saline with Tween-80.
Where [5] appears, read: dose: 200.0 mg/kg/injection, schedule: Q04DX003 (ip), vehicle: saline with Tween-80.
Setting [6] is: dose: 6.25 mg/kg/injection, schedule: Q01DX009 (ip), vehicle: saline with Tween-80.
[7] abbreviates: dose: 25.0 mg/kg/injection, schedule: Q01DX009 (ip), vehicle: saline with Tween-80.
The mark [8] stands for this setting: dose: 12.5 mg/kg/injection, schedule: Q04DX003 (ip), vehicle: saline with Tween-80.
Setting [9] is: dose: 25.0 mg/kg/injection, schedule: Q04DX003 (ip), vehicle: saline with Tween-80.

Take `CCO/C=C1\SC(=S)N(c2ccco2)C1=O`: the T/C (dose: 5.56 mg/kg/injection, schedule: Q01DX009 (ip), vehicle: saline with Tween-80) is 104 % of control; the T/C (dose: 8.33 mg/kg/injection, schedule: Q01DX009 (ip), vehicle: saline with Tween-80) was 104 % of control; the T/C under setting [1] was 108 % of control; the T/C (dose: 18.7 mg/kg/injection, schedule: Q01DX009 (ip), vehicle: saline with Tween-80) was 116 % of control; the T/C (dose: 22.0 mg/kg/injection, schedule: Q01DX009 (ip), vehicle: saline with Tween-80) was 150 % of control; the T/C (dose: 30.0 mg/kg/injection, schedule: Q01DX009 (ip), vehicle: saline) is 116 % of control. For the same compound, the T/C was 100 % of control (dose: 44.0 mg/kg/injection, schedule: Q01DX009 (ip), vehicle: saline); 100 % of control under setting [2]; 116 % of control (dose: 66.0 mg/kg/injection, schedule: Q01DX009 (ip), vehicle: saline); 116 % of control under setting [3].

Turning to `S=c1[nH]nc2n1NC(c1ccccc1)=NN2`, the T/C is, setting by setting: under setting [4], 91 % of control; under setting [5], 87 % of control; (dose: 400.0 mg/kg/injection, schedule: Q04DX003 (ip), vehicle: saline with Tween-80) 95 % of control.

As for `CCOC(=O)c1c[nH]c2ccc(OC)cc2c1=O`, the T/C (dose: 25.0 mg/kg/injection, schedule: Q01DX009 (ip), vehicle: saline) was 111 % of control; the T/C (dose: 50.0 mg/kg/injection, schedule: Q01DX009 (ip), vehicle: saline) was 104 % of control; the T/C under setting [3] is 117 % of control; the T/C (dose: 100.0 mg/kg/injection, schedule: Q04DX003 (ip), vehicle: saline) is 107 % of control; the T/C (dose: 200.0 mg/kg/injection, schedule: Q01DX009 (ip), vehicle: saline) was 113 % of control; the T/C (dose: 200.0 mg/kg/injection, schedule: Q04DX003 (ip), vehicle: saline) was 98 % of control. The T/C by setting is: (dose: 400.0 mg/kg/injection, schedule: Q01DX009 (ip), vehicle: saline) 109 % of control; (dose: 400.0 mg/kg/injection, schedule: Q04DX003 (ip), vehicle: saline) 100 % of control.

Turning to `Cc1ccc(S(=O)(=O)N/N=C2/C(=N/NS(=O)(=O)c3ccc(C)cc3)C3CCC2C3)cc1`, the T/C runs as follows: (dose: 50.0 mg/kg/injection, schedule: Q01DX009 (ip), vehicle: other) 105 % of control; (dose: 100.0 mg/kg/injection, schedule: Q01DX009 (ip), vehicle: other) 96 % of control; (dose: 200.0 mg/kg/injection, schedule: Q01DX009 (ip), vehicle: other) 95 % of control.

As for `CN=S(=O)(OCCOCCOS(=O)(=NC)c1ccc(C)cc1)c1ccc(C)cc1` (configuration not stated), the T/C is 111 % of control under setting [2]; 108 % of control (dose: 100.0 mg/kg/injection, schedule: Q01DX009 (ip), vehicle: saline with Tween-80); 114 % of control (dose: 200.0 mg/kg/injection, schedule: Q01DX009 (ip), vehicle: saline with Tween-80).

Consider `NCC(O)COc1ccccc1N` (configuration not stated), for which the T/C reads like this: (dose: 3.0 mg/kg/injection, schedule: Q01DX009 (ip), vehicle: saline) 100 % of control; (dose: 3.0 mg/kg/injection, schedule: Q04DX003 (ip), vehicle: saline) 108 % of control and 109 % of control; (dose: 6.0 mg/kg/injection, schedule: Q01DX009 (ip), vehicle: saline) 100 % of control; (dose: 6.0 mg/kg/injection, schedule: Q04DX003 (ip), vehicle: saline) 95 % of control and 109 % of control; (dose: 12.0 mg/kg/injection, schedule: Q01DX009 (ip), vehicle: saline) 96 % of control; (dose: 12.0 mg/kg/injection, schedule: Q04DX003 (ip), vehicle: saline) 100 % of control and 113 % of control.

For `CB1NN=C(C)c2ccsc21`, the T/C was 105 % of control under setting [6], 91 % of control under setting [1] and 95 % of control under setting [7].

Take `CCCCC(=O)NN`: the T/C is, setting by setting: under setting [8], 99 % of control; under setting [9], 103 % of control; (dose: 50.0 mg/kg/injection, schedule: Q04DX003 (ip), vehicle: saline with Tween-80) 110 % of control; under setting [4], 100 % of control; under setting [5], 91 % of control.

Turning to `Clc1c(CBr)ccc(CBr)c1Cl`, the T/C reads like this: under setting [6], 104 % of control; (dose: 6.25 mg/kg/injection, schedule: Q04DX003 (ip), vehicle: saline sonified) 100 % of control; under setting [1], 114 % of control; (dose: 12.5 mg/kg/injection, schedule: Q04DX003 (ip), vehicle: saline sonified) 90 % of control; under setting [7], 123 % of control; (dose: 25.0 mg/kg/injection, schedule: Q04DX003 (ip), vehicle: saline sonified) 90 % of control.

As for `CCOC(=O)C1C(=O)C(CN(CCCl)CCCl)C(=O)C(C(=O)OCC)C1c1ccc(O)cc1` (configuration not stated), the T/C is 180 % of control (dose: 0.75 mg/kg/injection, schedule: Q01DX009 (ip), vehicle: Klucel (hydroxypropylcellulose) (HPC)); 190 % of control (dose: 1.5 mg/kg/injection, schedule: Q01DX009 (ip), vehicle: Klucel (hydroxypropylcellulose) (HPC)); 183 % of control (dose: 3.0 mg/kg/injection, schedule: Q01DX009 (ip), vehicle: Klucel (hydroxypropylcellulose) (HPC)); 153 % of control (dose: 3.13 mg/kg/injection, schedule: Q04DX003 (ip), vehicle: saline with Tween-80); 266 % of control (dose: 6.0 mg/kg/injection, schedule: Q01DX009 (ip), vehicle: Klucel (hydroxypropylcellulose) (HPC)); 185 % of control (dose: 6.25 mg/kg/injection, schedule: Q01DX009 (ip), vehicle: Klucel (hydroxypropylcellulose) (HPC)). The T/C (dose: 6.25 mg/kg/injection, schedule: Q04DX003 (ip), vehicle: Klucel (hydroxypropylcellulose) (HPC)) is 180 % of control; the T/C (dose: 6.25 mg/kg/injection, schedule: Q04DX003 (ip), vehicle: saline with Tween-80) is 160 % of control; the T/C (dose: 11.0 mg/kg/injection, schedule: Q01DX009 (ip), vehicle: Klucel (hydroxypropylcellulose) (HPC)) is 209 % of control; the T/C (dose: 12.5 mg/kg/injection, schedule: Q01DX009 (ip), vehicle: Klucel (hydroxypropylcellulose) (HPC)) was 269 % of control; the T/C (dose: 12.5 mg/kg/injection, schedule: Q04DX003 (ip), vehicle: Klucel (hydroxypropylcellulose) (HPC)) is 195 % of control; the T/C under setting [8] is 225 % of control. Also, the T/C (dose: 16.5 mg/kg/injection, schedule: Q01DX009 (ip), vehicle: Klucel (hydroxypropylcellulose) (HPC)) was 232 % of control; the T/C (dose: 20.0 mg/kg/injection, schedule: Q04DX003 (ip), vehicle: Klucel (hydroxypropylcellulose) (HPC)) is 105 % of control; the T/C (dose: 25.0 mg/kg/injection, schedule: Q01DX009 (ip), vehicle: Klucel (hydroxypropylcellulose) (HPC)) was 243 % of control and 95 % of control and 190 % of control; the T/C (dose: 25.0 mg/kg/injection, schedule: Q04DX003 (ip), vehicle: Klucel (hydroxypropylcellulose) (HPC)) was 182 % of control; the T/C under setting [9] is 260 % of control and 267 % of control; the T/C (dose: 37.5 mg/kg/injection, schedule: Q01DX009 (ip), vehicle: Klucel (hydroxypropylcellulose) (HPC)) is 103 % of control. Further, the T/C runs as follows: (dose: 50.0 mg/kg/injection, schedule: Q04DX003 (ip), vehicle: Klucel (hydroxypropylcellulose) (HPC)) 89 % of control; (dose: 80.0 mg/kg/injection, schedule: Q04DX003 (ip), vehicle: Klucel (hydroxypropylcellulose) (HPC)) 155 % of control; (dose: 118.0 mg/kg/injection, schedule: Q04DX003 (ip), vehicle: Klucel (hydroxypropylcellulose) (HPC)) 160 % of control; (dose: 177.0 mg/kg/injection, schedule: Q04DX003 (ip), vehicle: Klucel (hydroxypropylcellulose) (HPC)) 175 % of control; (dose: 200.0 mg/kg/injection, schedule: Q04DX003 (ip), vehicle: Klucel (hydroxypropylcellulose) (HPC)) 159 % of control; (dose: 266.0 mg/kg/injection, schedule: Q04DX003 (ip), vehicle: Klucel (hydroxypropylcellulose) (HPC)) 170 % of control. For the same compound, under “dose: 400.0 mg/kg/injection, schedule: Q04DX003 (ip), vehicle: Klucel (hydroxypropylcellulose) (HPC)”, the T/C is 180 % of control and 195 % of control.
